Assay results: ChEMBL document CHEMBL1129894, “Dihydroxypyrrolidines C-linked to galactose. Total synthesis of a specific inhibitor of -mannosidases” (Bioorg Med Chem Lett, 1997)
Active and inactive are the calls of the source. The rule behind the calls is not given here.

What was measured:
[1] = system: Aspergillus niger; assay: Inhibition of the enzyme beta-D-xylosidase from Aspergillus niger was determined at 1 mM concentration of the compound; No inhibition
[2] = target: T1, Beta-galactosidase (Aspergillus niger) (UniProt P29853); assay: Inhibition of the enzyme beta-galactosidase from Aspergillus niger was determined at 1 mM concentration of the compound; No inhibition
T1 sequence (whole entry): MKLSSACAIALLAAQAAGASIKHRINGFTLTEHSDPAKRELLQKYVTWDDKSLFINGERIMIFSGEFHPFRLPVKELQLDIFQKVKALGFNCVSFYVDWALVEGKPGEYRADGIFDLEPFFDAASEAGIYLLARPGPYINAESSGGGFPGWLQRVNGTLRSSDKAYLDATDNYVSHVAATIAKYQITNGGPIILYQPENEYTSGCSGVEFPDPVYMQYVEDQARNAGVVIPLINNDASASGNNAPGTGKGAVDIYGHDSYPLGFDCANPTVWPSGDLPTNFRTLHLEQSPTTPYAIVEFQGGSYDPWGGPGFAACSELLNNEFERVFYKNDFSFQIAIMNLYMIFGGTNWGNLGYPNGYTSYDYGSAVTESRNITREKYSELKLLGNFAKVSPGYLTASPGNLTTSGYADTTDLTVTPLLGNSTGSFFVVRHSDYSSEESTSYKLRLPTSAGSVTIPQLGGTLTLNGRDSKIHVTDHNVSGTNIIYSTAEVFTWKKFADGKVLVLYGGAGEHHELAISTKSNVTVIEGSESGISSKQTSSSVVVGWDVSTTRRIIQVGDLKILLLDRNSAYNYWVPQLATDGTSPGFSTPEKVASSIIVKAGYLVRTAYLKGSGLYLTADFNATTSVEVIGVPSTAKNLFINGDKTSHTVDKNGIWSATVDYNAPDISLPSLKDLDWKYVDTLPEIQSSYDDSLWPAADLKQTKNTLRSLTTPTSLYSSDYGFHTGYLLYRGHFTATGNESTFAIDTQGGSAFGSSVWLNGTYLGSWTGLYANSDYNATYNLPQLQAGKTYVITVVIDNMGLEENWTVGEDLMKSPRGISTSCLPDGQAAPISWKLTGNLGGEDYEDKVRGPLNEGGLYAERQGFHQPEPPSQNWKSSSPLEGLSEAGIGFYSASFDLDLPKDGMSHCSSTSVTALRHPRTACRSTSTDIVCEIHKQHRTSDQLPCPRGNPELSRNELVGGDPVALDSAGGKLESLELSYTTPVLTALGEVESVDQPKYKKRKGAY

[3] = target: T2, Alpha-N-acetylgalactosaminidase (Homo sapiens) (UniProt P17050); assay: Inhibition of the enzyme alpha-N-acetylgalactosaminidase from chicken liver was determined at 1 mM concentration of the compound; No inhibition; settings: Gallus gallus, target entry is the homologue from another species
T2 sequence (whole entry): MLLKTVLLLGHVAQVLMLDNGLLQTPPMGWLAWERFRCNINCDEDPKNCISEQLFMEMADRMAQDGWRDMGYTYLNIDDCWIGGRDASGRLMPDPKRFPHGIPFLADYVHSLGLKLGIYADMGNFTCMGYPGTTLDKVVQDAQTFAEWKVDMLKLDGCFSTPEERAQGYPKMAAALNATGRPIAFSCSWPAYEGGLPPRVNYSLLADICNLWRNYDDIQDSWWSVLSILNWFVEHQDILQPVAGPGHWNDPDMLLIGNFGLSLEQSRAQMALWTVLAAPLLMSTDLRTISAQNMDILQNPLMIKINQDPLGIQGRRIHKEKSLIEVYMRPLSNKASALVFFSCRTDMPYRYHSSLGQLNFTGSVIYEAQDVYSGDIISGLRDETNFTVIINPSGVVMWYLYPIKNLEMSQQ

[4] = Inhibition of the enzyme amyloglucosidase from Rhizopus mold was determined at 1 mM concentration of the compound; No inhibition
[5] = target: T3, Beta-galactosidase (Bos taurus) (UniProt Q58D55); assay: Inhibition of the enzyme beta-galactosidase from bovine liver was determined at 1 mM concentration of the compound; No inhibition
T3 sequence (whole entry): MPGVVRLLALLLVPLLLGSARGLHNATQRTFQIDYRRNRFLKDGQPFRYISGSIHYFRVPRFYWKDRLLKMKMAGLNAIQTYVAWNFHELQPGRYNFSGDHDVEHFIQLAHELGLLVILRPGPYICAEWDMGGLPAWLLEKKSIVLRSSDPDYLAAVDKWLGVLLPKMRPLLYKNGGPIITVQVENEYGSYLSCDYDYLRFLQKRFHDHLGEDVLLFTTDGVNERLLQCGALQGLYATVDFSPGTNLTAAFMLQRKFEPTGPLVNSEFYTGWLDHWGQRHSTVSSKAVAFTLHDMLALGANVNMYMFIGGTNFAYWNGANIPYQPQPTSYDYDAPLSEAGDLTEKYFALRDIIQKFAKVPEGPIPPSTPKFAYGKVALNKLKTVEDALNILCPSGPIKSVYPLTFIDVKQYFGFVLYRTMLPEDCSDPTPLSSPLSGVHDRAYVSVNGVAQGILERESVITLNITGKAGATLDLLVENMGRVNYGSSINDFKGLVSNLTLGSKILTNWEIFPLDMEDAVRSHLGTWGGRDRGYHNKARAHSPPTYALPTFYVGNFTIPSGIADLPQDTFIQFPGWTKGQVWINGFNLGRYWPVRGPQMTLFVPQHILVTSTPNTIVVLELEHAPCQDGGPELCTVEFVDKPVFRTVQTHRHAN

[6] = target: T4, Tissue alpha-L-fucosidase (Homo sapiens) (UniProt P04066); assay: Inhibition of the enzyme alpha-L-fucosidase from bovine epididymis was determined at 1 mM concentration of the compound; No inhibition; settings: Bos taurus, target entry is the homologue from another species
T4 sequence (whole entry): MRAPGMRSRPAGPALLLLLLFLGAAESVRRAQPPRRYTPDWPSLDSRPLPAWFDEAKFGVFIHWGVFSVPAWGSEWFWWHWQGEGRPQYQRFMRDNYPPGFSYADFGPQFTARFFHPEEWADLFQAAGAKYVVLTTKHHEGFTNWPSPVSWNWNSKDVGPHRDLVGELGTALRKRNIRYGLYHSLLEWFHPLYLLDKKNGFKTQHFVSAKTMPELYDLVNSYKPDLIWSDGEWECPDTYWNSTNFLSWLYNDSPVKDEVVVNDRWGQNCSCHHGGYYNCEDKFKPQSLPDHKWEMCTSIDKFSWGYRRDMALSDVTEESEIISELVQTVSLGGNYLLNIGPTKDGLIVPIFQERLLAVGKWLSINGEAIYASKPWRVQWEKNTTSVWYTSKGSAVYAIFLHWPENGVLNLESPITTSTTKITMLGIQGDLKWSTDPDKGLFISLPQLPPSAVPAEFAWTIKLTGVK

[7] = species: Bos taurus; assay: Inhibition of the enzyme beta-N-acetylglucosaminidase from bovine epididymis B was determined at 1 mM concentration of the compound; No inhibition
[8] = system: Saccharomyces cerevisiae; assay: Inhibition of the enzyme alpha-glucosidase (isomaltase) from baker yeast was determined at 1 mM concentration of the compound; No inhibition
[9] = target: Glucoamylase (Aspergillus niger) (UniProt P69328); assay: Inhibition of the enzyme amyloglucosidase from Aspergillus niger was determined at 1 mM concentration of the compound; No inhibition
[10] = system: Prunus dulcis; assay: Inhibition of the enzyme beta-glucosidase from almonds was determined at 1 mM concentration of the compound; No inhibition
[11] = target: Beta-galactosidase (Escherichia coli) (UniProt Q8VNN2); assay: Inhibition of the enzyme beta-galactosidase from Escherichia coli was determined at 1 mM concentration of the compound; No inhibition
[12] = Inhibition of the enzyme Beta-mannosidase from Helix pomatia was determined at 1 mM concentration of the compound; No inhibition
[13] = species: Bos taurus; assay: Inhibition of the enzyme beta-N-acetylglucosaminidase from bovine epididymis A was determined at 1 mM concentration of the compound; No inhibition
[14] = target: T4, Tissue alpha-L-fucosidase (Homo sapiens); assay: Inhibition of the enzyme alpha-L-fucosidase from human placenta was determined at 1 mM concentration of the compound; No inhibition
[15] = Inhibition of the enzyme beta-galactosidase from Aspergillus oryzae was determined at 1 mM concentration of the compound; No inhibition
[16] = Inhibition of the enzyme alpha-mannosidase from almonds was determined at 1 mM concentration of the compound; No inhibition
[17] = Inhibition of the enzyme beta-galactosidase from jack beans was determined at 1 mM concentration of the compound; No inhibition
[18] = Inhibition of the enzyme Alpha-galactosidase from coffee beans was determined at 1 mM concentration of the compound; No inhibition; settings: Coffea arabica
[19] = system: Saccharomyces cerevisiae; assay: Inhibition of the enzyme alpha-glucosidase (maltase) from yeast was determined at 1 mM concentration of the compound; No inhibition
[20] = Inhibition of the enzyme Alpha-galactosidase from Escherichia coli was determined at 1 mM concentration of the compound; No inhibition
[21] = system: Caldicellulosiruptor saccharolyticus; assay: Inhibition of the enzyme beta-glucosidase from Caldocellum saccharolyticum was determined at 1 mM concentration of the compound; No inhibition
[22] = Inhibition of the enzyme Alpha-galactosidase from Aspergillus niger was determined at 1 mM concentration of the compound; No inhibition
[23] = system: jack; assay: Inhibition of the enzyme beta-N-acetylglucosaminidase from jack beans was determined at 1 mM concentration of the compound; No inhibition
[24] = system: Oryza sativa; assay: Inhibition of the enzyme alpha-glucosidase (maltase) from rice was determined at 1 mM concentration of the compound; No inhibition
[25] = Inhibition of the enzyme alpha-mannosidase from almonds was determined at 1 mM concentration of the compound; Moderate inhibition

Sequence of Glucoamylase (Aspergillus niger) (P69328 whole entry): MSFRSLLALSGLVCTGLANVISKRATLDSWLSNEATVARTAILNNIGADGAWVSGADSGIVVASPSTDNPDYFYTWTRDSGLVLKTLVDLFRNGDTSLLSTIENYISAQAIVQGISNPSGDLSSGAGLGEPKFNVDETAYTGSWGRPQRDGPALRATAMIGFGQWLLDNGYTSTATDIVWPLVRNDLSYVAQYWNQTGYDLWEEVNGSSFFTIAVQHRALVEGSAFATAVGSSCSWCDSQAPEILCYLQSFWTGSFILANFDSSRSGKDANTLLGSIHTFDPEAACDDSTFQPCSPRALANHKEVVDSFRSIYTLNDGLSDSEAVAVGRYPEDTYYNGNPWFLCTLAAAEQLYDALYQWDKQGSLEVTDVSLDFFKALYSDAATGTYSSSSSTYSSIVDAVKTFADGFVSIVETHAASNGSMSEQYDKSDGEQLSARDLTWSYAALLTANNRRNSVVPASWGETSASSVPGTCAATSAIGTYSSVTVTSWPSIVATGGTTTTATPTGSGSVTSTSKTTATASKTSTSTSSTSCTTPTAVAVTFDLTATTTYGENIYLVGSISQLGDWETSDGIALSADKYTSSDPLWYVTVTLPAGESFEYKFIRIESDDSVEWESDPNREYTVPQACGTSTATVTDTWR
Sequence of Beta-galactosidase (Escherichia coli) (Q8VNN2 whole entry, looked up): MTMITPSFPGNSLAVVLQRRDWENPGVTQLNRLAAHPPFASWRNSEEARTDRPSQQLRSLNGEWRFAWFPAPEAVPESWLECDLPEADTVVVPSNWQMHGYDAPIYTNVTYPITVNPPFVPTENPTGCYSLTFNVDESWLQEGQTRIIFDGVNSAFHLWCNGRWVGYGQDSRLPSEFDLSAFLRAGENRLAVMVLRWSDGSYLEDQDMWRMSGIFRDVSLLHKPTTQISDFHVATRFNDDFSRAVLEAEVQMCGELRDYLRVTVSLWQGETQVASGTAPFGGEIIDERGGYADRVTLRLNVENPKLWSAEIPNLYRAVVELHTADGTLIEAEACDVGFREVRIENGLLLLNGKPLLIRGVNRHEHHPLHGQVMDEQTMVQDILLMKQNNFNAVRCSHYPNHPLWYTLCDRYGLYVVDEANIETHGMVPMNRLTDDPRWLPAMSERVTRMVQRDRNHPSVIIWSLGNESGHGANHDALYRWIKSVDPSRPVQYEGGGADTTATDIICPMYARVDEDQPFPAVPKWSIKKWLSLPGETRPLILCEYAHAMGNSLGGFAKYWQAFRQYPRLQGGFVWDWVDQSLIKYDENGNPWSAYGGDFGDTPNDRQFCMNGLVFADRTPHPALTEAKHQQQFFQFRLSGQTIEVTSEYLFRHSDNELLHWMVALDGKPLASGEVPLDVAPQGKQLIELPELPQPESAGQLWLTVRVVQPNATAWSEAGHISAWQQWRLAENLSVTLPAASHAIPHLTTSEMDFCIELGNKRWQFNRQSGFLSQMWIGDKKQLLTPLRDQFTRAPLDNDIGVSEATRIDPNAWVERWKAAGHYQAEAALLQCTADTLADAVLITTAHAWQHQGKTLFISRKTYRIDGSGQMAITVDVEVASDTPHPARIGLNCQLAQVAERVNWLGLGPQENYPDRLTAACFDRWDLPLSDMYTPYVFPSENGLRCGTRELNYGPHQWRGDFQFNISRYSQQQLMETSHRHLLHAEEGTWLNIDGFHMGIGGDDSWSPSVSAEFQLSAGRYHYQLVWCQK

Row | inhibition [1] | inhibition [2] | inhibition [3] | inhibition [4] | inhibition [5] | inhibition [6] | inhibition [7] | inhibition [8] | inhibition [9] | inhibition [10] | inhibition [11] | inhibition [12] | inhibition [13] | inhibition [14] | inhibition [15] | inhibition [17] | inhibition [18] | inhibition [19] | inhibition [20] | inhibition [21] | Compound | also measured
1 | inactive | inactive | inactive | inactive | inactive | inactive | inactive | inactive | inactive | inactive | inactive | inactive | inactive | inactive | inactive | inactive | inactive | inactive | inactive | inactive | OCC1O[C@H](O)C(O)[C@@H]([C@H](O)C2NCC(O)C2O)C1O (stereo partly drawn) | inhibition [16]: inactive; inhibition [22]: inactive; inhibition [23]: inactive; inhibition [24]: inactive
2 | inactive | inactive | inactive | inactive | inactive | inactive | inactive | inactive | inactive | inactive | inactive | inactive | inactive | inactive | inactive | inactive | inactive | inactive | inactive | inactive | OCC1O[C@H](O)[C@H](O)[C@@H]([C@H](O)C2NCC(O)C2O)C1O (stereo partly drawn) | inhibition [22]: inactive; inhibition [25]: 27%; inhibition [23]: inactive; inhibition [24]: inactive
